In patent publication US7371729B2, “Boronic acid salts useful in parenteral formulations” (Trigen Limited, priority 2002, dated 2008):
Where a name gives a salt, the structure may show the parent alone. Read-outs that look alike come from different tables or passages of the source.

What was measured:
[1] = Stability: HPLC-PDA assay before and after drying over phosphorus pentoxide for 1 week; assay type: physicochemical
Experimental: An assay of TRI 50c and its sodium and lysine salts before and after drying.
For sample analysis, 5 mg of dried and non-dried material was weighed in a 5 mL volumetric flask and dissolved in 1 mL acetonitrile and filled up with demineralised water to 5 mL.
The quantitative evaluation was performed using an HPLC-PDA method.

[2] = i.v. pharmacokinetics in rats; assay type: in vivo; details: plasma, rat, 1.0 mg/kg iv; for half-life: read-out: Elimination half life; for MRT: read-out: Mean Residence Time (converted)
Experimental: Rats, body weight circa 250-300 g were used.
Both compounds were given at a dose of 1.0 mg/kg iv.
This was dosed at 1.33 ml/kg (equivalent to 30 mg/kg).

Thrombin = target: T1, Thrombin (Homo sapiens, UniProt P00734); assay: Thrombin amidolytic assay (Vmax, S2238); assay type: biochemical; details: FIG. 1; TRI 50b as external control
T1 construct: Thrombin obtained from HTI, via Cambridge Bioscience; purchased HTI, via Cambridge Bioscience
Experimental: Chromogenic substrate S2238 dissolved to 4 mM (25 mg+10 mI) in water. Diluted to 50 μM with assay buffer for use in assay at 5 μM. (S2238 is H-D-Phe-Pip-Arg-pNA).
Thrombin obtained from HTI, via Cambridge Bioscience, and aliquoted at 1 mg/ml with assay buffer. Dilute to 100 ng/ml with assay buffer and then a further 1 in 3 for use in the assay.

[3] = Tolerability in beagle dogs after i.v. dose; assay type: in vivo; details: dog, 1.0 mg/kg i.v., total duration of the study
Experimental: Blood samples were taken into 3.8% tri-sodium citrate (1+8) at pre dose, 2, 5, 10, 20, 30, minutes post dose and then at 1, 2, 3, 4, 6, 8, 12 and 24 hours post dose. Plasma was prepared by centrifugation and frozen at minus 20° C. pending analysis.

[4] = test system: platelet procoagulant activity; assay: Inhibition of platelet procoagulant activity (washed platelets, prothrombin activation); assay type: cell-based; details: agonist Thrombin (1.15 nM)
Excerpt: Platelet pro-coagulant activity may be observed as the increase, in rate of activation of prothrombin by factor Xa in the presence of factor Va upon the addition of platelets pretreated with thrombin, caused by thrombin alone, collagen alone or a mixture of thrombin and collagen. This property is due to an increase in anionic phospholipid on the surface of the platelet with concomitant release of microvesicle from the surface. This is an essential physiological reaction and people whose platelets have reduced ability to generate procoagulant activity (Scott syndrome) show an increased tendency for bleeding.
Washed platelets were treated with either 1.15 nM thrombin, 23 μg/ml collagen or a mixture of both at the same concentration at 37° C. TRI 50b was added either for 1 minute prior to the addition of activator or immediately after the incubation with activator. Platelet procoagulant activity was determined as described previously (Goodwin C A et al, Biochem J. 1995 8, 308: 15-21).

human α-thrombin = human α-thrombin (Homo sapiens, UniProt P00734); details: reported by J. Deadman et al, J. Med. Chem. 1995; cited from earlier work
platelet rich thrombus = assay: Rabbit extracorporeal shunt model; assay type: in vivo
Excerpt: The technique describes an animal model in which a platelet rich thrombus is produced. The activity of TRI 50b and heparin are compared.
The carotid artery and jugular vein of anaesthetised rabbits were used to create an extracorporeal circuit containing a suspended foreign surface (silk thread). Thrombus deposition is initiated by creation of high sheer stress turbulent arterial blood flow, platelet activation, followed by coagulation in the presence of thrombogenic surfaces. Histopathological studies have shown that the thrombus is platelet rich.
NZW rabbits (males 2.5-3.5 kg) were used. The animals were allowed food and water up to the induction of anaesthesia.
Animals were premedicated with […] (Hypnorm) 0.15 ml total by intramuscular injection. General anaesthesia was induced with methohexitone (10 mg/ml) to effect, followed by endotracheal intubation. Anaesthesia was maintained with isoflurane (1-2.0%) carried in oxygen/nitrous oxide.
The animals were placed in dorsal recumbency and the ventral cervical region prepared for surgery. The left carotid artery and right jugular vein were exposed. The artery was cannulated with a large Portex® catheter (yellow gauge), cut to a suitable length. The vein was cannulated with a Silastic® catheter. The shunt comprised of a 5 cm length of ‘auto analyser’ line (purple/white gauge). Joins to the shunt on the arterial side were made with intermediate size Silastic® tubing. The shunt was filled with saline before exposure to the circulation. The right femoral artery was cannulated for the measurement of blood pressure.
The central section of the shunt contained a thread 3 centimetres in length. This consisted of 000 gauge Gutterman sewing silk so as to give four strands with a single knot at the end. (The knot section was outside the shunt).
Blood flow velocity was determined by use of ‘Doppler’ probes (Crystal Biotech). A silastic probe was positioned over the carotid artery at the point of insertion of the arterial catheter. Flow was recorded on a chart recorder using heat sensitive paper.

[5] = Hydrolysis of TRI 50b in acid conditions (HPLC assay); assay type: physicochemical; details: for example of an HPLC assay
Excerpt: It has been discovered that TRI 50b tends to hydrolyse.

washed platelets = assay: Aggregation of washed platelets; assay type: cell-based
Rat tail bleeding model = assay type: in vivo
Experimental: Bleeding times were determined in a rat tail bleeding model following intravenous administration of heparin and TRI 50b. The doses employed were chosen on the basis of their efficacy in the rat Wessler and dynamic models and were as follows:
Rats were anaesthetised with sodium pentabarbitone at 60 mg/kg (2.0 ml/kg of 30 mg/ml solution by ip. injection). Supplemental anaesthetic was given ip. as required.
A jugular vein was cannulated for the administration of test compound. The trachea was also cannulated with a suitable cannula and the animals allowed to breathe ‘room air’ spontaneously.
These were given in the appropriate vehicle at 1.0 ml/kg intravenously. Heparin was administered in saline, whilst TRI 50b was dissolved in ethanol, and then the resultant solution added to water for injection (1 part ethanol to 5 parts water).
Two minutes following compound administration the distal 2 mm of the animal's tail was sectioned with a new scalpel blade and the tail immersed in warm saline (37° C.) contained in a standard ‘universal’ container, so that the blood stream was clearly visible. The bleeding time recording was started immediately following transection until the cessation of blood flow from the tip of the tail.

COCCC[C@H](NC(=O)[C@@H]1CCCN1C(=O)[C@@H](Cc1ccccc1)NC(=O)OCc1ccccc1)B(O)O [TRI 50c, Cbz-(R)-Phe-(S)-Pro-(R)-boroMpg-OH]
Purity (% area) ([1]; non-dried): 85.54 % area | Amount ([1]; non-dried, 5 mg in 5 mL): 947.3 µg/mL | clearance [2]: 11.3 mL/min/kg | half-life [2]: 36.6 min | MRT [2]: 45 min

COCCC[C@H](NC(=O)[C@@H]1CCCN1C(=O)[C@@H](Cc1ccccc1)NC(=O)OCc1ccccc1)B([O-])O.COCCC[C@H](NC(=O)[C@@H]1CCCN1C(=O)[C@@H](Cc1ccccc1)NC(=O)OCc1ccccc1)B([O-])O.[Mg+2] [magnesium salt of TRI 50c]
activity in thrombin amidolytic assay (Vmax) (Thrombin): same activity as TRI 50b

COCCC[C@H](NC(=O)[C@@H]1CCCN1C(=O)[C@@H](Cc1ccccc1)NC(=O)OCc1ccccc1)B(O)O [TRI 50c sodium salt, Cbz-(R)-Phe-(S)-Pro-(R)-Mpg-B(OH)2 monosodium salt]
tolerability [3]: tolerated well with no adverse events | stability: effect of drying on purity ([1]; in words): not significantly reduced

COCCC[C@H](NC(=O)[C@@H]1CCCN1C(=O)[C@@H](Cc1ccccc1)NC(=O)OCc1ccccc1)B1OC(C)(C)C(C)(C)O1 [TRI 50b, Cbz-(R)-Phe-Pro-BoroMpg-OPinacol]
IC50 ([4]; TRI 50b added 1 minute prior to activator, read-out: IC50 plus pre-incubation): 8 nM | IC50 ([4]; TRI 50b added after incubation with activator, read-out: IC50 without incubation): 3000 nM | Ki (human α-thrombin): 7 nM | ANTITHROMBOTIC ACTIVITY (platelet rich thrombus; 3.0 mg/kg iv): Active | bleeding in shunt model (platelet rich thrombus; 3 mg/kg to 10 mg/kg iv): without bleeding | ANTITHROMBOTIC ACTIVITY (platelet rich thrombus; 10 mg/kg iv): Active | hydrolysis to the acid form, half life [5]: short half life | effect on ADP, collagen or epinephrine induced aggregation of washed platelets (washed platelets): does not have an effect | Bleeding time min (±SEM) (Rat tail bleeding model; 5 mg/kg iv): 11.3 ± 1.2 min | Bleeding time min (±SEM) (Rat tail bleeding model; 10 mg/kg iv): 30.4 ± 5.2 min | clearance [2]: 10 mL/min/kg | half-life [2]: 35 min | MRT [2]: 46 min
